Assay: Diarrheogenic activity test (rat, intragastric, all or none diarrhea assessment)
Assay type: in vivo, Charles River rats
Settings: doses 100 to 3000 microgram/kg
Experimental: Diarrhea is an undesirable side effect commonly associated with prostaglandins.
Groups of six adult male Charles River rats, weight range 180 to 200 grams are fasted for 24 hours prior to administering the test substance. The prostaglandin to be tested is administered intragastrically in iso-osmotic phosphate buffer at a volume of 10 ml/kg at doses ranging from 100 to 3000 microgram/kg. Control animals receive only the vehicle. The rats are placed in individual wire mesh cages and the trays lined with brown paper. Diarrhea is assessed at hourly intervals on an all or none basis for up to eight hours after administration of the prostaglandin. Diarrhea is defined as any loose or watery stool. ED50 value is assessed for each hourly diarrheogenic response.

Rat 8 hour Diarrheogenic ED50	SMILES	TD50 at 8 h (in vivo, po, read-out: Rat 8 hour Diarrheogenic ED50)
–	CCCCC(C)(O)C/C=C/[C@H]1[C@H](O)CC(=O)[C@@H]1CCCCCCC(=O)OC (relative stereo) [Compound I]	0.366 mg/kg
> 3.2 mg/kg	CCCCC(C)(O)C/C=C/[C@H]1[C@H](O)CC(=O)[C@@H]1CCCCCC(C)C(=O)OC (relative stereo) [Compound II]	–

From patent publication US4536592A, “2-Substituted prostaglandins” (G. D. Searle & Co., priority 1984, dated 1985)
